{
  "source": "patent US20260199282A1",
  "about": "“METHODS AND COMPOSITIONS FOR IMPROVING DRIVING PERFORMANCE” (priority 2022, published 2026)",
  "key": {"[1]": {"test_system": "participants with narcolepsy", "experiment": "Toronto Hospital Alertness Test (THAT), narcolepsy study", "type": "in vivo, human", "settings": "end of 7-day treatment period", "method": "The Toronto Hospital Alertness Test (THAT) is a 10-item self-report questionnaire that measures perceived alertness over the previous week; scores can range from 0 to 50, with higher scores indicating greater alertness (Shapiro et al., 2006). This assessment was administered at the end of each 7-day treatment period to evaluate participants' perceived alertness throughout the treatment period.\nAdditional secondary efficacy measures (standard deviation of speed, number of lane drifts, and THAT scores) were analyzed using a similar ANOVA method as described for SDLP. No multiplicity adjustments were made in the efficacy analyses for multiple endpoints, and all p values are therefore nominal."}, "[2]": {"test_system": "subjects with EDS due to OSA", "experiment": "Safety / adverse events, OSA study", "type": "in vivo, human", "method": "The incidence of treatment-emergent adverse events was summarized by treatment. Descriptive statistics were presented for vital sign results. No formal statistical testing was performed for the safety analyses.\nThe use of vital signs, clinical laboratory tests, standard AE reporting, and the questionnaires that were selected to assess the safety of the study drug were appropriate since they are routinely used to assess the safety profile of drugs in clinical studies and pertinent to known risks of solriamfetol. The C-SSRS is able to determine clinically meaningful points at which a person may be at risk for an impending suicide attempt (Posner 2011)."}, "[3]": {"test_system": "participants with narcolepsy", "settings": "12 weeks; 75 to 300 mg/day; cited from earlier work"}, "[4]": {"settings": "cited from earlier work"}, "[5]": {"test_system": "participants with OSA", "experiment": "Actual task effectiveness from PVT inverse reaction time, OSA", "type": "in vivo, human", "settings": "OSA n=31", "method": "(§1) Actual task effectiveness scores were calculated based on each participant's inverse reaction time (IRT [1/RT]) as described below. Sleep intervals derived from participants' actigraphy data—or from sleep diaries, if available, where actigraphy data were missing—were used to calculate modeled healthy control task effectiveness scores using the SAFTE. Participants evidenced good sleep hygiene, with minimal missing data. Task effectiveness was not modeled for participants missing data from the night before PVT testing. A SAFTE model effectiveness score of 100 indicates typical best performance during the day, based on a normal healthy population. SAFTE-FAST effectiveness predictions have been validated against IRT on the PVT [22].\n(§2) Actual effectiveness scores were calculated as a percentage of a theoretical “best performance” from participants' average IRT per PVT trial (for all PVT test sessions, actual effectiveness=IRT/3.96×100). Average speed (IRT) on a PVT under optimal conditions—healthy sleepers taking the test at 11:00 in the morning, following an 8-hour sleep opportunity—is approximately 3.96 [40], and is assumed to represent an actual effectiveness score of 100 (a healthy participant's typical best performance). Repeated-measures analysis of variance (ANOVA) was used to estimate the effect of treatment on actual effectiveness over time."}, "[6]": {"test_system": "participants with narcolepsy", "settings": "12 weeks; 75 to 300 mg/day; cited from earlier work", "remark": "listed apart in the source"}, "[7]": {"test_system": "participants with narcolepsy", "experiment": "Safety / adverse events, narcolepsy study", "type": "in vivo, human", "method": "Safety assessments included a physical examination, ECG, clinical laboratory tests, and assessment of adverse events (AEs).\nDemographic, narcolepsy history, and safety data were summarized for the safety population, which included all participants who received ≥1 dose of study drug. No formal statistical testing was performed on these parameters."}, "[8]": {"test_system": "participants with narcolepsy", "experiment": "Actual task effectiveness from PVT inverse reaction time, narcolepsy", "type": "in vivo, human", "settings": "narcolepsy n=20", "method": "as §1, §2"}, "[9]": {"test_system": "subjects with EDS due to OSA", "set-up": "species or system human", "settings": "in vivo"}, "[10]": {"test_system": "subjects with EDS due to OSA", "experiment": "Toronto Hospital Alertness Test (THAT), OSA study", "type": "in vivo, human", "method": "THAT is analyzed using a mixed effect analysis of covariance (ANCOVA) model. The model includes baseline, treatment (JZP-110 and placebo), treatment period, treatment sequence as fixed effects and subject as a random effect. *p-value is nominal.\nThe THAT is a 10-item self-report questionnaire designed to measure perceived alertness in the preceding week (Shapiro 2006). The test was administered at baseline and prior to administration of study drug at Visits 4 and 5"}},
  "note": "Where “and” joins values, the source holds several entries; their conditions need not be identical. Identical values can stand only once. Like-named read-outs stand apart in the source and are kept apart here.",
  "data": [
    {"smiles": "NC(=O)OC[C@H](N)Cc1ccccc1", "note": "[Solriamfetol, (R)-2-amino-3-phenylpropyl carbamate]", "values": [
      {"measurement": "THAT score, LS mean (SE)", "setting": "[1]", "value": "34.0 (1.4)"},
      {"measurement": "THAT score, LS mean difference solriamfetol vs placebo", "setting": "[1]", "value": 7.1},
      {"measurement": "subjects with TEAE considered related to study treatment", "setting": "[2]; after receiving solriamfetol", "value": 35.3, "unit": "%"},
      {"measurement": "serious or fatal TEAEs", "setting": "[2]; in vivo", "value": "no serious nor fatal TEAEs"},
      {"measurement": "subjects with TEAE related or suspected related to study drug, n (%)", "setting": "[2]; received solriamfetol", "value": "12 (35.3%)"},
      {"measurement": "subjects experiencing TEAEs, n (%)", "setting": "[2]; receiving solriamfetol", "value": "17 (50.0%)"},
      {"measurement": "Epworth Sleepiness Scale, treatment difference from placebo (least squares mean)", "setting": "[3]", "value": "−2.2 to −4.7", "unit": "points"},
      {"measurement": "mean half-life", "setting": "[4]; fasting conditions", "value": 5.9, "unit": "h"},
      {"measurement": "median time to peak plasma concentration", "setting": "[4]; fasting conditions", "value": 2, "unit": "h"},
      {"measurement": "mean half-life", "setting": "[4]; fed conditions", "value": 6.1, "unit": "h"},
      {"measurement": "median time to peak plasma concentration", "setting": "[4]; fed conditions", "value": 3, "unit": "h"},
      {"measurement": "Actual task effectiveness, LS mean (SE)", "setting": "[5]; 2 hours post-dose", "value": "91.88 (1.12)"},
      {"measurement": "Actual task effectiveness, LS mean difference", "setting": "[5]; 2 hours post-dose", "value": "−2.35"},
      {"measurement": "Actual task effectiveness, LS mean (SE)", "setting": "[5]; 6 hours post-dose", "value": "93.72 (1.12)"},
      {"measurement": "Actual task effectiveness, LS mean difference", "setting": "[5]; 6 hours post-dose", "value": "−1.35"},
      {"measurement": "Actual task effectiveness, LS mean (SE)", "setting": "[5]; pre-dose", "value": "89.19 (1.12)"},
      {"measurement": "Actual task effectiveness, LS mean difference", "setting": "[5]; pre-dose", "value": "−4.45"},
      {"measurement": "Maintenance of Wakefulness Test, treatment difference from placebo (least squares mean)", "setting": "[6]", "value": "2.6 to 10.1", "unit": "min"},
      {"measurement": "serious or fatal TEAEs", "setting": "[7]; in vivo", "value": "no serious or fatal TEAEs"},
      {"measurement": "participants experiencing a TEAE, n (%)", "setting": "[7]; while on solriamfetol", "value": "17 (74%)"},
      {"measurement": "discontinuation due to AEs", "setting": "[7]; while taking solriamfetol", "value": "No participant discontinued"},
      {"measurement": "Actual task effectiveness, LS mean (SE)", "setting": "[8]; 2 hours post-dose", "value": "96.07 (1.65)"},
      {"measurement": "Actual task effectiveness, LS mean difference", "setting": "[8]; 2 hours post-dose", "value": 10.41},
      {"measurement": "Actual task effectiveness, LS mean (SE)", "setting": "[8]; 6 hours post-dose", "value": "93.89 (1.65)"},
      {"measurement": "Actual task effectiveness, LS mean difference", "setting": "[8]; 6 hours post-dose", "value": 7.60},
      {"measurement": "Actual task effectiveness, LS mean (SE)", "setting": "[8]; pre-dose", "value": "86.06 (1.65)"},
      {"measurement": "Actual task effectiveness, LS mean difference", "setting": "[8]; pre-dose", "value": "−6.16"},
      {"measurement": "PVT errors, LS mean (SE)", "setting": "[9]", "value": "1.24 (0.58) n/trial and 1.84 (0.58) n/trial"},
      {"measurement": "PVT inverse reaction time, LS mean (SE)", "setting": "[9]", "value": "3.53 (0.04) 1/ms and 3.64 (0.04) 1/ms and 3.71 (0.04) 1/ms"},
      {"measurement": "PVT lapses, LS mean (SE)", "setting": "[9]", "value": "3.82 (0.90) n/trial and 3.02 (0.90) n/trial and 3.98 (0.90) n/trial"},
      {"measurement": "THAT total score, LS mean difference, sensitivity analysis", "setting": "[10]; PP population", "value": 2.983},
      {"measurement": "THAT total score, LS mean (SE)", "setting": "[10]; end of treatment period, mITT", "value": 27.52},
      {"measurement": "THAT total score, mean (SD)", "setting": "[10]; end of treatment period, mITT", "value": "27.5 (7.60)"},
      {"measurement": "THAT total score, median", "setting": "[10]; end of treatment period, mITT", "value": 28.5},
      {"measurement": "THAT total score, LS mean (SE)", "setting": "[10]; end of treatment period, mITT, listed as JZP-110", "value": "27.52 (1.162)"},
      {"measurement": "THAT median total score, difference vs placebo", "setting": "[10]; mITT", "value": 4.0},
      {"measurement": "THAT total score, LS mean difference (JZP-110 − Placebo)", "setting": "[10]; mITT", "value": 3.579}
    ]}
  ]
}
